Assay results: patent US12077503B2, “Substituted cyclic amides and their use as herbicides” (FMC CORPORATION, priority 2015, dated 2024)

Tests used:
Type in all cases: in vivo
[1] = system: barnyardgrass (Echinochloa crus-galli); assay: Test A preemergence; settings: Echinochloa crus-galli, pre-emergence, 240 h, Preemergence
Method in brief: (§1)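 Preemergence directed soil spray on seeded pots, or postemergence application to plants 2–10 cm, one- to two-leaf. Solvent mixture non-phytotoxic, with surfactant. Scored ~10 d later, visually, 0–100 vs untreated.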

Kochia (Kochia scoparia) [2] = assay: Test A preemergence; settings: Bassia scoparia, pre-emergence, 240 h, Preemergence
Method in brief: as §1

[3] = system: giant foxtail (Setaria faberii); assay: Test A preemergence; settings: Setaria faberi, pre-emergence, 240 h, Preemergence
Method in brief: as §1

[4] = system: pigweed (Amaranthus retroflexus); assay: Test A preemergence; settings: Amaranthus retroflexus, pre-emergence, 240 h, Preemergence
[5] = system: ryegrass, Italian (Italian ryegrass, Lolium multiflorum); assay: Test A preemergence; settings: Lolium multiflorum, pre-emergence, 240 h, Preemergence
Method in brief: as §1

[6] = system: ragweed (common ragweed, Ambrosia elatior); assay: Test A preemergence; settings: Ambrosia artemisiifolia, pre-emergence, 240 h, Preemergence
Method in brief: as §1

[7] = system: barnyardgrass (Echinochloa crus-galli); assay: Test B flooded paddy test; settings: Echinochloa crus-galli, 360 h, Flood, 250 g ai/ha; visually evaluated after 13 to 15 d; read-out: Plant response rating, Barnyardgrass (0 to 100 scale where 0 is no effect and 100 is complete control)
Method in brief: (§2)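 Evaluation by eye, against controls, occurred 13–15 d post-treatment in a greenhouse, using a 0 (no effect) to 100 (complete control) scale. Application was into the paddy water, 3 cm deep over the soil, on 2-leaf plants.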

[8] = system: ducksalad (Heteranthera limosa); assay: Test B flooded paddy test; settings: Heteranthera limosa, 360 h, Flood, 250 g ai/ha; visually evaluated after 13 to 15 d; read-out: Plant response rating, Ducksalad (0 to 100 scale where 0 is no effect and 100 is complete control)
Method in brief: as §2

[9] = system: sedge, umbrella (small-flower umbrella sedge, Cyperus difformis); assay: Test B flooded paddy test; settings: Cyperus difformis, 360 h, Flood, 250 g ai/ha; visually evaluated after 13 to 15 d; read-out: Plant response rating, Sedge, Umbrella (0 to 100 scale where 0 is no effect and 100 is complete control)
Method in brief: as §2

rice (Oryra sativa) = assay: Test B flooded paddy test; settings: Oryza sativa, 360 h, Flood, 250 g ai/ha; visually evaluated after 13 to 15 d; read-out: Plant response rating, Rice (0 to 100 scale where 0 is no effect and 100 is complete control)
Method in brief: as §2

[10] = system: blackgrass (Alopecurus myosuroides); assay: Test A postemergence; settings: Alopecurus myosuroides, post-emergence, 240 h, Postemergence, read-out: Blackgrass plant response rating (0 to 100 scale)
Method in brief: as §1

[11] = system: barnyardgrass (Echinochloa crus-galli); assay: Test A postemergence; settings: Echinochloa crus-galli, post-emergence, 240 h, Postemergence
Method in brief: as §1

[12] = system: wheat (Triticum aestivum); assay: Test A postemergence; settings: Triticum aestivum, post-emergence, 240 h, Postemergence, read-out: Wheat plant response rating (0 to 100 scale)
Method in brief: as §1

Kochia (Kochia scoparia) [13] = assay: Test A postemergence; settings: Bassia scoparia, post-emergence, 240 h, Postemergence, read-out: Kochia plant response rating (0 to 100 scale)
Method in brief: as §1

[14] = system: giant foxtail (Setaria faberii); assay: Test A postemergence; settings: Setaria faberi, post-emergence, 240 h, Postemergence, read-out: Foxtail, Giant plant response rating (0 to 100 scale)
Method in brief: as §1

[15] = system: pigweed (Amaranthus retroflexus); assay: Test A postemergence; settings: Amaranthus retroflexus, post-emergence, 240 h, Postemergence, read-out: Pigweed plant response rating (0 to 100 scale)
Method in brief: as §1

corn (Zea mays) = assay: Test A postemergence; settings: Zea mays, post-emergence, 240 h, Postemergence, read-out: Corn plant response rating (0 to 100 scale)
Method in brief: as §1

[16] = system: Galium (catchweed bedstraw, Galium aparine); assay: Test A postemergence; settings: Galium, post-emergence, 240 h, Postemergence, read-out: Galium plant response rating (0 to 100 scale)
Method in brief: as §1

[17] = system: ryegrass, Italian (Italian ryegrass, Lolium multiflorum); assay: Test A postemergence; settings: Lolium multiflorum, post-emergence, 240 h, Postemergence, read-out: Ryegrass, Italian plant response rating (0 to 100 scale)
Method in brief: as §1

[18] = system: ragweed (common ragweed, Ambrosia elatior); assay: Test A postemergence; settings: Ambrosia artemisiifolia, post-emergence, 240 h, Postemergence, read-out: Ragweed plant response rating (0 to 100 scale)
Method in brief: as §1

[19] = 125 g ai/ha, visual rating about 10 d after treatment
[20] = 31 g ai/ha, 0 is no effect, 100 is complete control

Cc1cccc([C@H]2CN(C)C(=O)[C@@H]2C(=O)Nc2cnccc2C)c1 [Compound 1344]
0%: pest or weed control at 31 g/ha ([1]; 31 g ai/ha, 0 to 100 scale where 0 is no effect and 100 is complete control, read-out: Barnyardgrass plant response rating) | pest or weed control at 125 g/ha ([1]; 125 g ai/ha, 0 to 100 scale (0 no effect, 100 complete control), read-out: Plant response rating, Barnyardgrass) | pest or weed control at 31 g/ha (Kochia (Kochia scoparia) [2]; 31 g ai/ha, 0 to 100 scale where 0 is no effect and 100 is complete control, read-out: Kochia plant response rating) | pest or weed control at 125 g/ha (Kochia (Kochia scoparia) [2]; 125 g ai/ha, 0 to 100 scale (0 no effect, 100 complete control), read-out: Plant response rating, Kochia) | pest or weed control at 31 g/ha ([3]; 31 g ai/ha, 0 to 100 scale where 0 is no effect and 100 is complete control, read-out: Foxtail, Giant plant response rating) | pest or weed control at 125 g/ha ([3]; 125 g ai/ha, 0 to 100 scale (0 no effect, 100 complete control), read-out: Plant response rating, Foxtail, Giant) | pest or weed control at 31 g/ha ([4]; 31 g ai/ha, 0 to 100 scale where 0 is no effect and 100 is complete control, read-out: Pigweed plant response rating) | pest or weed control at 125 g/ha ([4]; 125 g ai/ha, 0 to 100 scale (0 no effect, 100 complete control), read-out: Plant response rating, Pigweed) | pest or weed control at 31 g/ha ([5]; 31 g ai/ha, 0 to 100 scale where 0 is no effect and 100 is complete control, read-out: Ryegrass, Italian plant response rating) | pest or weed control at 125 g/ha ([5]; 125 g ai/ha, 0 to 100 scale (0 no effect, 100 complete control), read-out: Plant response rating, Ryegrass, Italian) | pest or weed control at 31 g/ha ([6]; 31 g ai/ha, 0 to 100 scale where 0 is no effect and 100 is complete control, read-out: Ragweed plant response rating) | pest or weed control at 125 g/ha ([6]; 125 g ai/ha, 0 to 100 scale (0 no effect, 100 complete control), read-out: Plant response rating, Ragweed) | pest or weed control at 250 g/ha [7] | pest or weed control at 250 g/ha [8] | pest or weed control at 250 g/ha [9] | pest or weed control at 250 g/ha (rice (Oryra sativa)) | pest or weed control at 125 g/ha [10, 19] | pest or weed control at 31 g/ha [10, 20] | pest or weed control at 125 g/ha ([11]; 125 g ai/ha, visual rating about 10 d after treatment, read-out: Barnyardgrass plant response rating (0 to 100 scale, 0 no effect, 100 complete control)) | pest or weed control at 31 g/ha ([11]; 31 g ai/ha, 0 is no effect, 100 is complete control, read-out: Barnyardgrass plant response rating (0 to 100 scale)) | plant injury at 125 g/ha [12, 19] | plant injury at 31 g/ha [12, 20] | pest or weed control at 125 g/ha (Kochia (Kochia scoparia) [13]; [19]) | pest or weed control at 31 g/ha (Kochia (Kochia scoparia) [13]; [20]) | pest or weed control at 125 g/ha [14, 19] | pest or weed control at 31 g/ha [14, 20] | pest or weed control at 125 g/ha [15, 19] | pest or weed control at 31 g/ha [15, 20] | plant injury at 125 g/ha (corn (Zea mays); [19]) | plant injury at 31 g/ha (corn (Zea mays); [20]) | pest or weed control at 125 g/ha [16, 19] | pest or weed control at 31 g/ha [16, 20] | pest or weed control at 125 g/ha [17, 19] | pest or weed control at 31 g/ha [17, 20] | pest or weed control at 125 g/ha [18, 19] | pest or weed control at 31 g/ha [18, 20]
